In US10654834B2 (Venenum Biodesign, LLC, priority 2016, dated 2020):

How the values were obtained:
[1] = biological target: T1, mouse TGR5 receptor (Mus musculus, UniProt Q80SS6); assay: Mouse TGR5 HTRF cAMP production assay (HEK293-EBNA cells, Cisbio cAMP HiRange kit); assay type: cell-based; settings: HEK293-EBNA cells overexpressing mouse TGR5, HTRF cAMP assay
T1 construct: host or cells: HEK293-EBNA (293 c18, ATCC CRL10852)
T1 sequence (Q80SS6 1-329): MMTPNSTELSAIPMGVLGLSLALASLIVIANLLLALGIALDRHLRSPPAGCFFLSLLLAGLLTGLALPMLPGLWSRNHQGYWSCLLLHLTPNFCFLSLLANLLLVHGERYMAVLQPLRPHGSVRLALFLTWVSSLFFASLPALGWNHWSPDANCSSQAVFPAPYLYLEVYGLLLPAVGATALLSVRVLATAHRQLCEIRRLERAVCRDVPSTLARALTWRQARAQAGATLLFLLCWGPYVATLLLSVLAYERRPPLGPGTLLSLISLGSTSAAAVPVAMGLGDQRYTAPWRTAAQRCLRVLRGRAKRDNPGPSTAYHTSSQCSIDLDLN
Protocol: Mouse TGR5 cAMP Production Assay
Compounds of the present invention were evaluated for their ability to induce cAMP production in HEK-EBNA cells overexpressing the mouse TGR5 receptor. Human embryonic kidney cells (HEK293-EBNA) stably expressing mouse TGR5 receptor were established using the following procedure. Specifically, a commercially obtained gene encoding mouse TGR5 (accession number BC116914) from Thermo Scientific (Waltham, Mass.) was cloned into an episomal expression vector. The resulting expression plasmid was then transfected into 293 c18 (ATCC® CRL10852™) cells, which express the Epstein-Barr virus nuclear antigen EBNA1 and can support the replication of episomal vectors. Selection for the plasmid was maintained with Hygromycin B. Cells were cultured and maintained in DMEM (Sigma; cat #6429) supplemented with 10% Fetal Bovine Serum, 1% penicillin/streptomycin, 2 mM L-alanine L-glutamine (GlutaMax), and 250 μg/mL Hygromycin.
We developed two cAMP production assays.
(ii) HTRF cAMP Production Assay
In this second cAMP production assay, the cAMP production was measured in 384-well low volume plates (Greiner; cat #784075) using the Cisbio™ cAMP HiRange HTRF Assay Kit (CisBio) according to the manufacturer's protocol.
Briefly, compounds were initially diluted in 100% DMSO (12-point serial dilution by half logs) in a 96-well plate and then were further diluted 1:50 in PBS containing 10 mM HEPES. 5 μL were transferred to the 384-well assay plate in duplicate. HEK293-EBNA cells stably overexpressing mouse TGR5 were harvested using non-enzymatic cell dissociation buffer (Sigma), spun down, then resuspended in serum-free DMEM with 500 μM IBMX at a density of 500,000 cells/mL. 5 μL of cell suspension was transferred to each well of the 384-well assay plate already containing compound. The plate was covered and incubated at room temperature for 1 hour. The d2-cAMP and anti-cAMP Ab-cryptate stock solutions were prepared as per kit instructions. Then 5 μL of each conjugate (d2 and cryptate) were added to each well of the assay plate. The plate was covered and incubated at room temperature for one (1) hour. The plate was read on an Envision™ plate reader (PerkinElmer).
(§1) In Table 52, EC50 values for both human and mouse cells were determined according to the TGR5 cAMP assays described above. […]

[2] = biological target: T2, human TGR5 receptor (Homo sapiens, UniProt Q8TDU6); assay: Human TGR5 cAMP production assay (hTGR5-CHO cells, DiscoveRx cAMP XS+ kit); assay type: cell-based; settings: luminescent cAMP assay, read-out: Human TGR5 Lum. cAMP Activity (EC50)
T2 construct: host or cells: CHO-K1 (hTGR5-CHO)
T2 sequence (Q8TDU6 1-330): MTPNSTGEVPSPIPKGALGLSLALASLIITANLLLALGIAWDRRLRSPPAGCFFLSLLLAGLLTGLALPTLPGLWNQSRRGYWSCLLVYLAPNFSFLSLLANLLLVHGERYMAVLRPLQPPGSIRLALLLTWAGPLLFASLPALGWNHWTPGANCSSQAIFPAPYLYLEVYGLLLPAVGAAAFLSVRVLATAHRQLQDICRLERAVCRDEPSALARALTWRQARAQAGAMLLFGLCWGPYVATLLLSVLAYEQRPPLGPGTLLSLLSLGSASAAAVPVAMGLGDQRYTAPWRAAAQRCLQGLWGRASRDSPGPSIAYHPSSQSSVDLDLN
Protocol: Human TGR5 cAMP Production Assay
Compounds of the present invention were evaluated for their ability to induce cAMP production using CHO-K1 cells overexpressing the human TGR5 receptor.
CHO-K1 cells stably expressing human TGR5 receptor (accession number NM_001077194.1) (hTGR5) (i.e., hTGR5-CHO cells) were purchased from DiscoveRx Corporation (Fremont, Calif.). hTGR5-CHO cells were grown in Ham's F-12 media supplemented with 10% Fetal Bovine Serum, 1% Penicillin-Streptomycin, 2 mM L-Alanine L-Glutamine (Glutamax), and 800 μg/mL Geneticin selection. The cAMP production assay was performed using DiscoveRx's cAMP XS+ kit (Catalog No. 90-0075XL) following the manufacturer's recommended protocol. Briefly, hTGR5-CHO cells were harvested using non-enzymatic cell dissociation buffer (Sigma-Aldrich, St. Louis, Mo.) and 1×10^6 cells were combined in Phosphate-Buffered Saline (PBS) to a final volume of 496 μL to which 4 μL of 125 mM IBMX (Sigma-Aldrich, St. Louis, Mo.) was added. 500 μL of cAMP antibody solution was added to the harvested cells and incubated at room temperature for 20 min.
Test compounds were serially diluted (half-log dilutions) in DMSO and then further diluted 1:50 in PBS, 10 mM HEPES buffer. 2 μL of serially diluted compound was added to a 384-well low volume plate (Greiner; cat #784075) and centrifuged briefly. 2 μl of the cell/cAMP antibody mixture was then added to each compound-containing well and allowed to incubate at room temperature for one hour. Following incubation, the XS+ kits' ED/Lysis/CL Substrate Working Solution was prepared following the manufacturer's recommended protocol and 4 μL was added to each well of the plate. The plate was then incubated for one hour at room temperature. Following incubation, 4 μL of Enzyme Acceptor reagent was added to the plate and allowed to incubate overnight at room temperature. Luminescent signal was then detected using the Viewlux instrument (Perkin-Elmer, Waltham, Mass.).
Human and Mouse TGR5 cAMP
as §1

Compound	EC50 [1]	EC50 [2]
O=C(CS(=O)(=O)O)NCCC1CCN(c2cc(N3CC[C@H]3C(=O)NCCc3ccc(C(F)(F)F)cc3)nc(C(F)(F)F)n2)CC1 [Compound 279, (S)-2-oxo-2-((2-(1-(2-(trifluoromethyl)-6-(2-((4-(trifluoromethyl)phenethyl)carbamoyl)azetidin-1-yl)pyrimidin-4-yl)piperidin-4-yl)ethyl)amino)-ethanesulfonic acid]	< 100 nM	< 100 nM
N#Cc1ccc(CCNC(=O)[C@@H]2CCCN2c2cc(N3CCC(CCCC(=O)N4CCN(CC(=O)O)CC4)CC3)nc(C(F)(F)F)n2)cc1 [Compound 108, (S)-2-(4-(4-(1-(6-(2-((4-cyanophenethyl)carbamoyl)pyrrolidin-1-yl)-2-(trifluoromethyl)pyrimidin-4-yl)piperidin-4-yl)butanoyl)piperazin-1-yl)acetic acid]	< 100 nM	< 100 nM
N[C@@H](CCC(=O)NCCCC1CCN(c2cc(N3CCC[C@H]3C(=O)NCCc3ccc(C(F)(F)F)cc3)nc(C(F)(F)F)n2)CC1)C(=O)O [Compound 77, (S)-2-amino-5-oxo-5-((3-(1-(2-(trifluoromethyl)-6-((S)-2-((4-(trifluoromethyl)phenethyl)carbamoyl)pyrrolidin-1-yl)pyrimidin-4-yl)piperidin-4-yl)propyl)amino)pentanoic acid]	< 100 nM	< 100 nM
CCOC(=O)CCNC(=O)NCCC1CCN(c2cc(N3CC[C@H]3C(=O)NCCc3ccc(C#N)cc3)nc(C(F)(F)F)n2)CC1 [Compound 267, (S)-ethyl 3-(3-(2-(1-(6-(2-((4-cyanophenethyl)carbamoyl)azetidin-1-yl)-2-(trifluoromethyl)pyrimidin-4-yl)piperidin-4-yl)ethyl)ureido)propanoate]	< 100 nM	< 100 nM
O=C(O)CCCC1CCN(c2cc(N3C[C@H](O)C[C@H]3C(=O)NCCc3ccc(C(F)(F)F)cc3)nc(C(F)(F)F)n2)CC1 [Compound 212, 4-(1-(6-((2S,4R)-4-hydroxy-2-((4-(trifluoromethyl)phenethyl)carbamoyl)pyrrolidin-1-yl)-2-(trifluoromethyl)pyrimidin-4-yl)piperidin-4-yl)butanoic acid]	< 100 nM	100 to 999 nM
N#Cc1ccc(CCNC(=O)[C@@H]2CCCN2c2cc(N3CCC(CCCNC(=O)NCS(=O)(=O)O)CC3)cc(C(F)(F)F)n2)cc1 [Compound 201, (S)-(3-(3-(1-(2-(2-((4-cyanophenethyl)carbamoyl)pyrrolidin-1-yl)-6-(trifluoromethyl)pyridin-4-yl)piperidin-4-yl)propyl)ureido)methanesulfonic acid]	< 100 nM	100 to 999 nM
CN(C)CCC1CCN(c2cc(N3CCC[C@H]3C(=O)NCCc3ccc(C#N)cc3)nc(C(F)(F)F)n2)CC1 [Compound 21]	100 to 999 nM	< 100 nM

Second part, the compound after the results:

EC50 [1]	EC50 [2]	Compound
1000 to 30000 nM	1000 to 30000 nM	CN(C)[C@@H]1C[C@@H](C(=O)NCCc2ccc(C(F)(F)F)cc2)N(c2cc(N3CCC(CCNC(=O)NCCC(=O)O)CC3)nc(C(F)(F)F)n2)C1 [Compound 352, 3-(3-(2-(1-(6-((2S,4R)-4-(dimethylamino)-2-((4-(trifluoromethyl)phenethyl)carbamoyl)pyrrolidin-1-yl)-2-(trifluoromethyl)pyrimidin-4-yl)piperidin-4-yl)ethyl)ureido)propanoic acid]
< 100 nM	< 100 nM	N#Cc1ccc(CCNC(=O)[C@@H]2CCN2c2cc(N3CCC(CCNC(=O)NCCOCCNC(=O)C(F)(F)F)CC3)nc(C(F)(F)F)n2)cc1 [Compound 357, (S)-N-(4-cyanophenethyl)-1-(6-(4-(13,13,13-trifluoro-4,12-dioxo-8-oxa-3,5,11-triazatridecyl)piperidin-1-yl)-2-(trifluoromethyl)pyrimidin-4-yl)azetidine-2-carboxamide]
< 100 nM	< 100 nM	N#Cc1ccccc1CCNC(=O)[C@@H]1CCCN1c1cc(N2CCC(CCCC(=O)NCS(=O)(=O)O)CC2)nc(C(F)(F)F)n1 [Compound 366, (S)-(4-(1-(6-(2-((2-cyanophenethyl)carbamoyl)pyrrolidin-1-yl)-2-(trifluoromethyl)pyrimidin-4-yl)piperidin-4-yl)butanamido)methanesulfonic acid]
< 100 nM	100 to 999 nM	O=C(O)CCNC(=O)NCCC1CCN(c2cc(N3CCC[C@H]3C(=O)NCCc3ccc(-c4ccncc4)cc3)nc(C(F)(F)F)n2)CC1 [Compound 376, (S)-3-(3-(2-(1-(6-(2-((4-(pyridin-4-yl)phenethyl)carbamoyl)pyrrolidin-1-yl)-2-(trifluoromethyl)pyrimidin-4-yl)piperidin-4-yl)ethyl)ureido)propanoic acid]
< 100 nM	< 100 nM	CN(CCS(=O)(=O)O)c1c(NCCC2CCN(c3cc(N4CC[C@H]4C(=O)NCCc4ccc(C#N)cc4)nc(C(F)(F)F)n3)CC2)c(=O)c1=O [Compound 299, (S)-2-((2-((2-(1-(6-(2-((4-cyanophenethyl)carbamoyl)azetidin-1-yl)-2-(trifluoromethyl)pyrimidin-4-yl)piperidin-4-yl)ethyl)amino)-3,4-dioxocyclobut-1-en-1-yl)(methyl)amino)ethanesulfonic acid]
< 100 nM	100 to 999 nM	N#Cc1ccc(CCNC(=O)[C@@H]2CCCN(c3cc(N4CCN(CCn5ccnc5)CC4)nc(C(F)(F)F)n3)C2)cc1 [Compound 318, (R)-1-(6-(4-(2-(1H-imidazol-1-yl)ethyl)piperazin-1-y1)-2-(trifluoromethyl)pyrimidin-4-yl)-N-(4-cyanophenethyl)piperidine-3-carboxamide]
100 to 999 nM	1000 to 30000 nM	CC(C)(C)OC(=O)N[C@@H](CO)C(=O)N1CCN(c2cc(N3CCC[C@@H](C(=O)NCCc4ccc(C(F)(F)F)cc4)C3)nc(C(F)(F)F)n2)CC1 [Compound 341, tert-butyl ((S)-3-hydroxy-t-oxo-1-(4-(2-(trifluoromethyl)-6-((R)-3-((4-(trifluoromethyl)phenethyl)carbamoyl)piperidin-1-yl)pyrimidin-4-yl)piperazin-1-yl)propan-2-yl)carbamate]
